{
  "source": "patent US12364689B2",
  "about": "“Dosage regimen for the treatment of cancer” (AstraZeneca AB, priority 2020, dated 2025)",
  "key": {"[1]": {"assay": "Phase 1 clinical trial: pharmacokinetics of AZD9833 in plasma", "format": "in vivo, human", "text": "The “median terminal half-life” is the median time for a patient's drug blood plasma concentration to halve after reaching pseudo-equilibrium.\nPharmacokinetics: The characterisation of the pharmacokinetics of single and multiple doses of AZD9833 is a secondary objective of this study. Any residual sample remaining after PK analysis has been performed may be used to identify, characterise, and establish the concentration of AZD9833 metabolites and drug-related products in plasma, and/or to conduct exploratory biomarker research. Analysis of AZD9833 in plasma and urine will be performed using appropriate bioanalytical methods. Full details of the analytical methods used will be described in separate bioanalytical reports.\nAll samples within the known stability of the analytes of interest at the time of receipt by the bioanalytical laboratory will be analysed. In addition, the PK samples may be subjected to further analyses to identify, characterise, and establish the concentration of metabolites in plasma. Any results from such analyses will be reported separately from the clinical study report. Incurred sample reproducibility analysis, if any, will be performed with the bioanalysis of the test samples. The results from the evaluation will not be reported in the clinical study report but, separately, in a bioanalytical report. […]"}, "[2]": {"test_system": "ER signalling pathway / Ki67", "assay": "Phase 1 clinical trial: pharmacodynamic biomarkers in paired tumour biopsies", "format": "in vivo, human", "text": "Pharmacodynamics: Pharmacodynamic measurements will be made on a number of biomarkers (e.g., optional tumour biopsies, plasma ctDNA, CTC, and archival tumour tissue). Biological samples (archival tumour tissue, mandatory and optional biopsies where applicable) will be collected for the analysis of tumour DNA as an exploratory objective in this study. A 2-mL blood sample for DNA isolation will be collected prior to administration of the first dose of AZD9833 from subjects who have consented to participate in the genetic analysis component of this study. If for any reason the sample is not drawn prior to dosing, it may be taken at any visit until the last study visit. Only one sample for genetic research should be collected per subject during the study. Participation is optional.\nIn Part A, paired tumour biopsy samples will be taken from at least 2 subjects at each dose level. In Part B, these biopsies will be taken from at least 5 post-menopausal subjects at each AZD9833 dose level, 300 mg, 150 mg and 75 mg and at least 5 from pre-menopausal subjects at 300 mg. If subjects are willing to participate in this part of the study, they will sign a biopsy-specific written informed consent. Paired tumour biopsies will be obtained from subjects with accessible tumours who have consented to biopsies. […]"}},
  "data": [
    {"compound": "C[C@@H]1Cc2c(ccc3[nH]ncc23)[C@@H](c2ccc(NC3CN(CCCF)C3)cn2)N1CC(F)(F)F", "note": "[AZD9833, N-(1-(3-fluoropropyl)azetidin-3-yl)-6-((6S,8R)-8-methyl-7-(2,2,2-trifluoroethyl)-6,7,8,9-tetrahydro-3H-pyrazolo[4,3-f]isoquinolin-6-yl) pyridin-3-amine]", "values": [
      {"measurement": "AZD9833 exposure versus dose", "setting": "[1]; after multiple doses", "value": "dose proportional"},
      {"measurement": "half-life", "setting": "[1]; human, plasma, patients, oral QD dosing, across five doses, read-out: median terminal t1/2 (converted)", "value": 12, "unit": "h"},
      {"measurement": "ER signalling pathway modulation", "setting": "[2]; all dose cohorts", "value": "observed in all dose cohorts"},
      {"measurement": "reduction in Ki67", "setting": "[2]; patients where clinical responses occurred and paired biopsies obtained", "value": 98, "unit": "%"}
    ]}
  ]
}
